Test results taken from patent US6590123B2, “Aminobenzoic acid derivatives having anti-tumorigenic activity, methods of making and using the same” (Mount Sinai School of Medicine of New York University, priority 1998, dated 2003).
Values joined by “and” are separate entries in the source; they are usually repeats but may differ in a detail not shown here. Equal values may be shown once. “Also recorded” adds a separate entry of the source. Where a name gives a salt, the structure may show the parent alone. Read-outs that look alike come from different tables or passages of the source.

Assays:
[1] = LD50 (lethal dose) in mice; conditions: mice, i.p.
Description: (§1) The in vivo efficacy of 3-BAABU and 3-IAABU of the present invention was asssessed in a murine model, along with known anti-tubule agents, vinblastine and paclitaxel, as a comparative standard. Approximately 10^6 P338 leukemia lymphoma cells/mouse were implanted intra-peritoneal (i.p.) into male C57 BL/6JX mice (Jackson Laboratories, N.Y.). On days 2 and 8 post-implantation, drugs were administrated i.p. at the following concentration ranges: 3-BAABU from 16.6 to 116 μmole/kg, 3-IAABU from 14.4 to 101 μmole/kg, vinblastine from 2.2 to 20 μmole/kg and paclitaxel from 28 to 57 μmole/kg.
(§2) Both control and treated animals were examined for ascitic tumor burden daily for 35 days. […] Therapeutic index was defined as the ratio of LD50 (lethal dose) to ED50 (effective dose).

[2] = test system: P338 leukemia lymphoma cells; assay: Survival and ED50 in mice implanted i.p. with P338 lymphoma; assay type: in vivo, male C57 BL/6JX mice
Description: FIG. 9 is a plot graph of the survival rate of male C57 BL/6JX mice implanted (i.p.) with P338 lymphoma, from 10 to 40 days after implantation. Two groups were used for the study: a control group of ten and a test group of ten that were treated with 20 mg/kg, (i.p.) of compound 8 at 2 and 8 days post-implantation.
as §1, §2

CEM cells [3] = assay: Morphology by microscopy (mitotic arrest, apoptosis, necrosis); assay type: cell-based, human; conditions: for Mitotic arrest, %: % of mitotic cells after 24 h incubation, optical microscopy; for morphological effect on leukemic cells / Activities of inducing Apoptosis / Activities of inducing Mitotic block / Activities of inducing Necrosis: CEM leukemic cells; for Activities of inducing Apoptosis / Activities of inducing Mitotic block / Activities of inducing Necrosis: % of affected cells
Description: Slides for examination of mitosis were prepared on a cytospin centrifuge (Shandon Southern Products Ltd, England ) at 700 g for 5 min. Slides were air dried, fixed in methanol and stained with Giemsa (Harleco, N.J.) at room temperature for 15 min. Cells in mitotic arrest were recognized by the disappearance of nuclear membrane and by the appearance of chromosomal scattering throughout the cytoplasm (reference 1). The % of mitotic cells were counted after 24 h incubation using optical microscopy. Apoptotic cells were identified using common criteria, i.e., shrinkage in cell size, chromatin condensation and fragmentation of the nucleus into discrete masses (reference 2).
Cell samples on slides were prepared by a Cytospin centrifuge (Shandon Southern Products Ltd, England) at 700 g for 5 min. The slides were air dried, fixed in methanol and stained with Giemsa (Harleco, N.J.) at room temperature for 15 min. Alterations of nuclei, membranes and morphological features were observed by light microscopy. Cells in mitotic phase were recognized by the appearance of their chromosomes dispersed in the cytoplasm, and by the disappearance of nuclear membrane. Apoptotic-cells were identified using previously defined criteria, i.e., shrinkage in cell size, chromatin condensation and fragmentation of the nucleus into discrete masses (references 2 & 3). Necrotic cells were differentiated from apoptotic cells by observing swollen cytoplasm and the disappearance of cell membrane prior to the destruction of the nucleus.

CEM cells [4] = assay: Cytotoxicity, ID50 and ID90 by trypan blue staining; assay type: cell-based; conditions: for IC90 / IC50: Homo sapiens, CCRF-CEM; for IC90: 48 h; for IC50: 48 hr, NT = Non-toxic to CEM cells
Description: CEM cells, a human T-cell lymphoblastoid leukemia cell line (American Type Culture Collection, Rockville, Md.), were cultured in suspension (Iscove's Dulbecco's Medium) supplemented with 10% heat inactivated fetal bovine serum (FBS), penicillin (250 μ/ml) and streptomycin (250 μl/ml). Cells were incubated at 37° C. in 5% C02 and only those cells in exponential growth were used.
CEM cells were seeded into 96-well microplates (Falcon, Oxnard, Calif.) at 10^5 cell per well, then treated with 0-10 μg/ml of the candidate compounds for 48 h at 37° C. yielding a total volume of 250 μ/well. Cell viability was assessed by trypan blue staining. ID50 and ID90 were defined as the concentration killing 50% or 90% of the cells in comparison with untreated controls, and calculated by non-linear regression analysis.
Cells in suspension culture were seeded into 96-well microplates (Falcon, Oxnard, Calif.) at 10^5 cell per well, followed, by treatment with 0-10 μg/ml of the candidate compounds for 48 hr at 37° C. with total volume of 250 μl per well. Cell viability was assessed by trypan blue exclusion.
The ID50 and ID90 was determined in duplicate in every set of experiments, and each experiment was repeated 3 times under identical conditions. ID50 and ID90 were defined as drug concentrations that induced 50% or 90% cellular death in comparison with untreated controls and calculated by non-linear regression analysis. […]

CEM cells [5] = assay: Cell cycle analysis by flow cytometry; assay type: cell-based, human; conditions: 8 h treatment, compound 6 2.5 μg/ml, compound 8 0.025 μg/ml, compound 9 0.005 μg/ml
CEM cells [6] = assay: DNA fragmentation by electrophoresis (apoptosis); assay type: cell-based, human; conditions: 48 hours, compound 8 0.025 μg/ml, compound 9 0.005 μg/ml, fluorine compound 5.0 μg/ml, chlorine compound 0.75 μg/ml
Description: DNA fragmentation was determined by a method reported previously (reference 3). Briefly, cells were treated in 1 ml lysis buffer (0.01M Tris. HCL pH 8.0, 0.01M NaCl, 0.01M EDTA pH 8.0 and 5% sodium dodecyl sulfate) containing 1 μg/ml protease K for 1 h at 50° C. The resulting products were extracted with phenol and chloroform:isoamylalcohol (24:1, v/v), and precipitated with ethanol followed by centrifugation at 7800 g (Sorvall RC-5B Du Pont, Newtown, Conn.). The ethanol was removed and the dry pellets of nucleic acid were resuspended in 10 mM Tris-HCL/1 mM EDTA solution. When DNA content was determined spectrophotometrically all samples had A260/A280 ratio≧2. The DNA samples were then treated with RNase (Sigma, St. Louis, Mo.) at a final concentration of 0.1 μg/μl for 20 min at 37° C. before gel loading. Approximately 4 μg size DNA aliquots were loaded onto horizontal agarose gel (1.5%) prepared with 1% ethidium bromide. Electrophoresis was performed at 75 volts for 2 h and the DNA patterns were visualized with UV light.
[…] After incubation, cells were washed twice in PBS. Cell pellets were resuspended in drug-free medium and incubated for 48 hr at 37° C. Cell viability, morphology, mitotic spindles, cell cycle distribution and apoptosis were determined 24 hr and 48 hr post pulse exposure.
Soluble DNA from cells was extracted by the method reported previously (14). Briefly, after washing with PBS, cells were treated in 1 ml lysis buffer (0.01 M Tris.HCL pH 8.0, 0.01 M NaCl, 0.01M EDTA pH 8.0 and 5% sodium dodecyl sulfate) containing 1 μg/ml proteinase K for 1 hr at 50° C. The resulting products were extracted with phenol and chloroform:isoamylalcohol (24:1, v/v), and precipitated with ethanol followed by centrifugation at 7800 g (Sorvall RC-5B Du Pont, Newtown, Conn.). The ethanol was removed and the dry pellet of nucleic acid was resuspended in 10 mM Tris-HCL/1 mM EDTA solution. DNA content was determined spectrophotometrically by measuring absorption at 260 nm (A260). All samples, had A260/A280≧2. The DNA samples were then treated with RNase (Sigma, St. Louis, Mo.) at a final concentration of 0.1 μg/l for 20 min at 37° C. before gel loading. The DNA sample (4 μg) was analyzed in 1.5% horizontal agarose gel prepared with 1% ethidium bromide. Electrophoresis was performed at 75 volts for 2 hours and the DNA migration was visualized under UV light.

Purified tubulin = assay: Inhibition of microtubule assembly by spectrophotometry, cell free system; assay type: biochemical, calf; conditions: cell free tubulin, up to 10 μg/ml
Description: Purified tubulin was purchased from Sigma (St. Louis, Mo.). The effects of compounds 6, 7, 8, 9, paclitaxel and vinblastine on the microtubule assembly-disassembly process were determined using conditions recommended by the vendor. For assembly inhibition, 100 μl tubulin solution (500-600 μg protein/ml) was mixed gently with 400 μl reaction buffer containing 0.1 M MES (2-[N-morpholino]ethane sulfonic acid), 1 mM EGTA ([…]-N,N,N′,N′-tetraacetic acid), 0.5 mM MgCl2, 0.1 mM EDTA and 2.5 M gycerol at 37° C. Compounds 6, 7, 8, and 9 were next added to each sample at final concentrations of 10, 10, 1 and 1 μg/ml, respectively. After adding GTP to each sample to a final concentration of 1 mM, the microtubule assembly process was monitored by measuring the change of absorbance (OD) at 350 nm on a spectrophotometer (Ultrospec III, Pharmacia LKB, Uppsala, Sweden). A completed assembly process was observed within 40 min at room temperature. For disassembly inhibition, compounds 6, 7, 8, and 9 were added, at the above concentrations, to covets with repolymerized microtubules as described above, and incubated in melting ice. Changes of absorbance (OD) were monitored at 350 nm for 30 min until the OD values in the controls returned to the starting level, i.e., when the assembly-disassembly cycle was completed.
Purified tubulin from calf brain was purchased from Sigma (St. Louis, Mo.). The effects of 3-BAABU (3-bromoacetoamido, benzoylurea) on the microtubule assembly-disassembly process were determined using the conditions recommended by the vendor. For assembly inhibition, 100 μl tubulin solution (500-600 μg protein/ml) was mixed gently with 400 μl reaction buffer containing 0.1 M MES, 1 mM EGTA, 0.5 mM MgCl2, 0.1 mM EDTA and 2.5 M glycerol at 37° C. 3-BAABU, paclitaxel or vinblastine were then added to each sample cuvet at final concentrations of 3.3, 23 or 22 μM, respectively. After adding GTP to each sample to a final concentration of 1 mM, the microtubule assembly process was monitored by measuring the change of absorbance (OD) every 5 min at 350 nm on a spectrophotometer (Ultrospec III, Pharmacia LKB, Uppsala, Sweden). A completed assembly process was observed within 40 min at room temperature. For disassembly inhibition, 3-BAABU (3.3 μM), paclitaxel (23 μM) or vinblastine (22 μM) was added to a cuvet with repolymerized microtubules according to the method described above, and incubated in melting ice. Changes of absorbance (OD) were monitored at 350 nm for 30 min until the OD values in the controls returned to the starting level, i.e., completion of the assembly-disassembly cycle. Solvent solutions were used as control and had no effect in either the assembly or disassembly process.

[7] = CEM cells, concentration killing 90% of the cells, read-out: ID90 (the source's name)

| Molecule | Mitotic arrest, % (CEM cells [3]; CEM cells) [%] | IC90 (CEM cells [4]; [7]) | Activities of inducing Apoptosis (CEM cells [3]) | Activities of inducing Mitotic block (CEM cells [3]) | Activities of inducing Necrosis (CEM cells [3]) | also measured |
| --- | --- | --- | --- | --- | --- | --- |
| CC[C@]1(O)C[C@@H]2CN(CCc3c([nH]c4ccccc34)[C@@](C(=O)OC)(c3cc4c(cc3OC)N(C)[C@H]3[C@@](O)(C(=O)OC)[C@H](OC(C)=O)[C@]5(CC)C=CCN6CC[C@]43[C@@H]65)C2)C1 [Vinblastine, vinblastine sulfate] |  |  |  |  |  | LD50 [1]: 9.2 µmol/kg; Survival IL % ([2]; P338 Lymphoma (i.p.), 2 mg/kg ip on days 2 & 8): 21%; Survival Mean ± SD ([2]; P338 Lymphoma (i.p.), 2 mg/kg ip on days 2 & 8, control 15.1 ± 2.3): 18.2 ± 6.3; ED50 ([2]; P338 leukemia lymphoma i.p. in mice, drug i.p. on days 2 and 8): 4.5 µmol/kg |
| NC(=O)NC(=O)c1ccc(NC(=O)CI)cc1 [9 (4-position), 4-iodoacetoamido, benzoylurea] | <10 | 0.04 µg/mL and 112 nM |  |  |  |  |
| NC(=O)NC(=O)c1cccc(NC(=O)CF)c1 [Compound 6, 3-Fluoroacetoamido, benzoylurea] | <10 |  |  |  |  | shift of the cell population from G0/G1 (2N) to G2/M (4N), DNA profile (CEM cells [5]): undetectable change; also recorded: identical to that of the untreated control; apoptosis, DNA fragmentation on gel electrophoresis (CEM cells [6]): did not induce apoptosis; mitotic arrest (blocking) effect, morphological appearance (CEM cells [3]; CEM cells, 24 h, compound 8 at 0.025 μg/ml, compound 9 at 0.005 μg/ml): failed to induce mitotic arrest; interference with the cell cycle (CEM cells [3]; CEM cells, after 24 hours treatment, 2.5 μg/ml): virtually no interference; IC90 (CEM cells [4]; read-out: ID90): > 2.5 µg/mL and > 10 µM; cytotoxicity against human leukemic cells (CEM) (CEM cells [4]; at a concentration as high as 10 μM): no cytotoxicity; effect on microtubule assembly (Purified tubulin): no effect |
| NC(=O)NC(=O)c1ccc(NC(=O)CBr)cc1 [Compound 4-BAABU, 4-bromoacetylamino benzoylurea] | <10 | 0.15 µg/mL and 497 nM | − (−:<10%) | − (−:<10%) | ++++ (++++: >75%) | morphological effect on leukemic cells (CEM cells [3]): necrotic cell death; IC50 (CEM cells [4]; CEM leukemic cells): 230 nM |
| CCOC(=O)c1cccc(NC(=O)CBr)c1 [Compound 11, Ethyl-3-bromoacetoamido, benzoate] | <10 | 0.18 µg/mL and 740 nM | ++++ (++++: >75%) | − (−:<10%) | − (−:<10%) | morphological effect on leukemic cells (CEM cells [3]): caused apoptosis; fold increase of ID50 relative to 3-BAABU (CEM cells [4]; CEM leukemic cells): 10 fold; IC50 (CEM cells [4]; CEM leukemic cells): 590 nM |
| CCOC(=O)c1cccc(NC(=O)CCl)c1 [Compound 10, Ethyl-3-chloroacetoamido, benzoate] | <10 | 0.82 µg/mL and 3.39 µM |  |  |  |  |
| 3-bromopropionylamino benzoylurea [Compound 3-BPABU] |  |  | − (−:<10%) | − (−:<10%) | − (−:<10%) | cytotoxic activity (ID50 level) compared with 3-BAABU (CEM cells [4]; CEM leukemic cells): cytotoxic activity was eliminated |
